Source: US20250134109A1, “Antimicrobial, Antiviral and Antifungal Articles and Methods of Producing Such Articles” (Cupron, Inc., priority 2021, published 2025)

Assay: Copper ion release from 1.0μ particles of various copper compounds over exposure cycles
Type: physicochemical
Text: In many embodiments, it is possible to provide ion release rates that are tailored to the specific application. For example, embodiments include articles that comprise first particles having a first ion release rate and second particles having a second ion release rate.
The ion release rates listed may be considered to be an average ion release rate of a plurality of particles or powder having an average particle size of 1 micron also. […]

| Compound | Copper ion release from 1.0μ particles (exposure cycle 0) [ppm] | Copper ion release from 1.0μ particles (exposure cycle 5) [ppm] | Copper ion release from 1.0μ particles (exposure cycle 10) [ppm] | Copper ion release from 1.0μ particles (exposure cycle 15) [ppm] | Copper ion release from 1.0μ particles (exposure cycle 20) [ppm] | Copper ion release from 1.0μ particles (exposure cycle 25) [ppm] | Copper ion release from 1.0μ particles (exposure cycle 30) [ppm] | Copper ion release from 1.0μ particles (exposure cycle 35) [ppm] | Copper ion release from 1.0μ particles (exposure cycle 40) [ppm] | Copper ion release from 1.0μ particles (exposure cycle 45) [ppm] | Copper ion release from 1.0μ particles (exposure cycle 50) [ppm] | number of exposures in which copper ions are released into a fluid (as shown in Table 1) |
| --- | --- | --- | --- | --- | --- | --- | --- | --- | --- | --- | --- | --- |
| cuprous thiocyanate [CuSCN] | 4.0 | 2.7 | 1.8 | 1.3 | 0.9 | 0.6 | 0.4 | 0.3 | 0.2 | 0.1 | 0.0 |  |
| [Cu+].[I-] [Cul, cuprous iodide] | 6.0 | 3.0 | 1.5 | 0.7 | 0.4 | 0.2 | 0.1 | 0.0 | 0.0 | 0.0 | 0.0 |  |
| copper sulfide [Cu2S] | 0.5 | 0.5 | 0.5 | 0.5 | 0.5 | 0.5 | 0.5 | 0.5 | 0.5 | 0.5 | 0.5 |  |
| O=S(=O)([O-])[O-].[Cu+2] [CuSO4, copper sulfate] | 100.0 | 0.0 | 0.0 | 0.0 | 0.0 | 0.0 | 0.0 | 0.0 | 0.0 | 0.0 | 0.0 | less than five exposures |
